According to US10124022B2, “Compositions and methods for enhancing the effectiveness of systemic, HIPEC, IP, and related cancer treatments” (ChemoTherapeutics, LLC, priority 2010, dated 2018):
“And” between values parts separate entries of the source, which are not always exact repeats. Equal values may be shown once. Read-outs that look alike come from different tables or passages of the source.

Key:
HCT-116 cells [1] = assay: MTS cell viability assay, drugs ± one-hour hyperthermia, cytotoxicity measured after three days (Studies 1-6);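 as to all read-outs here: Drug-treated HCT-116 cells held one hour at 42 °C (hyperthermia) or 37 °C, then cultured at 37 °C, viability read by MTS in triplicate wells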; conditions: for % cell survival / GI50 / growth inhibition at the concentrations tested / growth promoting effect / cell survival: three days; for GI50: HCT-116 cells; for effect on the cytotoxicity caused by Selenite: Study 6, FIG. 6c; for cell survival: 200 nM
Method: For each study, two plates of HCT-116 cells were seeded in 96-well cell culture plates (2000 cells per well for three-day studies and 10,000 cells for one-day studies). The next day, drugs prepared in 200 μl of culture medium were added to the wells. […] Each treatment was completed in triplicate. One plate was incubated at 37° C. while the other plate was incubated at 42° C. (hyperthermia) for one hour (two hours for study 7 and 8). After the treatment, 4000 freshly harvested cells (cells which were not subjected to hyperthermia) were added to 3 wells of each plate to assess the effect of hyperthermia (for one-day experiments, 20,000 cells will be added). Both plates were incubated at 37° C. for the number of days specified in each study. Cell viability was measured using MTS assay (Promega CellTiter 96 Aqueous MTS Assay reagents).
Cytotoxicity was measured after three days.
The non-chemotherapeutic agent combinations tested were: Vitamin C/Selenite and Vitamin C/Selenite/Quercetin. Cytotoxicity was measured after three days.
The non-chemotherapeutic agent combinations tested were: Vitamin E/Selenite/Quercetin and Selenite/Quercetin. Cytotoxicity was measured after three days.
Tested the cytotoxic effects of combination treatments (±hyperthermia at 42° C. for one hour) with chemotherapeutic reagents (Mitomycin C at 0.2 and 0.8 μM or Cisplatin at 2.5 and 10 μM) and four non-chemotherapeutic reagents (100 nM Vitamin D, 40 μM Vitamin E, 20 μM Selenite and 150 μNA Quercetin). The non-chemotherapeutic agent combinations tested were: Quercetin/Vitamin D/Vitamin E/Selenite, Vitamin E/Selenite, and Vitamin D/Vitamin E/Selenite. Cytotoxicity was measured after three days.
The non-chemotherapeutic agent combinations tested were: Vitamin C/Selenite, Vitamin C/Quercetin, Selenite/Quercetin and Vitamin C/Selenite/Quercetin. Cytotoxicity was measured after three days.

HCT-116 cells [2] = assay: MTS assay, two-hour drug treatment, drugs replaced with fresh medium, measured after one day (Study 7b); conditions: FIG. 7b
Method: For each study, two plates of HCT-116 cells were seeded in 96-well cell culture plates (2000 cells per well for three-day studies and 10,000 cells for one-day studies). The next day, drugs prepared in 200 μl of culture medium were added to the wells. […] Each treatment was completed in triplicate. One plate was incubated at 37° C. while the other plate was incubated at 42° C. (hyperthermia) for one hour (two hours for study 7 and 8). After the treatment, 4000 freshly harvested cells (cells which were not subjected to hyperthermia) were added to 3 wells of each plate to assess the effect of hyperthermia (for one-day experiments, 20,000 cells will be added). […] Cell viability was measured using MTS assay (Promega CellTiter 96 Aqueous MTS Assay reagents).
Tested the short-term cytotoxic effects of combination treatments (±hyperthermia at 42° C. for two hour) with chemotherapeutic reagents (0.2 μM Mitomycin C or 10 μM Cisplatin) and three non-chemotherapeutic reagents (1.25 mM Vitamin C, 20 μM Selenite and 150 μM Quercetin). […] Cytotoxicity was measured with MTS assay immediately after the two-hour drug/hyperthermia treatment. • b. […] Drugs were replaced with fresh medium after the treatment, and the cytotoxic effect was measured after one day. • c. Cells were incubated with drugs for one day before the cytotoxicity was measured.

[3] = read-out: Growth inhibition (GI50)
[4] = Study 5, no chemotherapeutic, 100 nM Vitamin D, 40 μM Vitamin E, 20 μM Selenite, 150 μM Quercetin as named, 37° C.
[5] = Study 5, no chemotherapeutic, 100 nM Vitamin D, 40 μM Vitamin E, 20 μM Selenite, 150 μM Quercetin as named, 42° C. 1 hr
[6] = Study 4, no chemotherapeutic, 40 μM Vitamin E, 20 μM Selenite, 150 μM Quercetin as named, 37° C.
[7] = Study 4, no chemotherapeutic, 40 μM Vitamin E, 20 μM Selenite, 150 μM Quercetin as named, 42° C. 1 hr

## N.N.[Cl][Pt][Cl] [Cisplatin, reference compound]
HCT-116 cells [1]; Study 4, 2.5 μM Cisplatin, alone or with 40 μM Vitamin E, 20 μM Selenite, 150 μM Quercetin as named, 37° C.
  % cell survival: 74.7%
HCT-116 cells [1]; Study 4, 2.5 μM Cisplatin, alone or with 40 μM Vitamin E, 20 μM Selenite, 150 μM Quercetin as named, 42° C. 1 hr
  % cell survival: 61.7%
HCT-116 cells [1]; Study 4, 10 μM Cisplatin, alone or with 40 μM Vitamin E, 20 μM Selenite, 150 μM Quercetin as named, 37° C.
  % cell survival: 37.5%
HCT-116 cells [1]; Study 4, 10 μM Cisplatin, alone or with 40 μM Vitamin E, 20 μM Selenite, 150 μM Quercetin as named, 42° C. 1 hr
  % cell survival: 37.5%
HCT-116 cells [1]; Study 5, 2.5 μM Cisplatin, alone or with 100 nM Vitamin D, 40 μM Vitamin E, 20 μM Selenite, 150 μM Quercetin as named, 37° C.
  % cell survival: 86.1%
HCT-116 cells [1]; Study 5, 2.5 μM Cisplatin, alone or with 100 nM Vitamin D, 40 μM Vitamin E, 20 μM Selenite, 150 μM Quercetin as named, 42° C. 1 hr
  % cell survival: 76.0%
HCT-116 cells [1]; Study 5, 10 μM Cisplatin, alone or with 100 nM Vitamin D, 40 μM Vitamin E, 20 μM Selenite, 150 μM Quercetin as named, 37° C.
  % cell survival: 52.1%
HCT-116 cells [1]; Study 5, 10 μM Cisplatin, alone or with 100 nM Vitamin D, 40 μM Vitamin E, 20 μM Selenite, 150 μM Quercetin as named, 42° C. 1 hr
  % cell survival: 41.9%
HCT-116 cells [1]; [3]
  GI50: 12 µM
HCT-116 cells [2]
  cancer cell killing after 2 hours of treatment, cell survival measured one day later: additional killing effect

## CO[C@@]12[C@H](COC(N)=O)C3=C(C(=O)C(C)=C(N)C3=O)N1C[C@@H]1N[C@@H]12 [Mitomycin C, reference compound]
HCT-116 cells [1]; Study 3, 0.2 μM Mitomycin C, alone or with 1.25 mM Vitamin C, 20 μM Selenite as named, 37° C.
  % cell survival: 35%
HCT-116 cells [1]; Study 3, 0.2 μM Mitomycin C, alone or with 1.25 mM Vitamin C, 20 μM Selenite as named, 42° C. 1 hr
  % cell survival: 36.9%
HCT-116 cells [1]; Study 3, 0.8 μM Mitomycin C, alone or with 1.25 mM Vitamin C, 20 μM Selenite as named, 37° C.
  % cell survival: 16.9%
HCT-116 cells [1]; Study 3, 0.8 μM Mitomycin C, alone or with 1.25 mM Vitamin C, 20 μM Selenite as named, 42° C. 1 hr
  % cell survival: 15.5%
HCT-116 cells [1]; Study 4, 0.2 μM Mitomycin C, alone or with 40 μM Vitamin E, 20 μM Selenite, 150 μM Quercetin as named, 37° C.
  % cell survival: 33.3%
HCT-116 cells [1]; Study 4, 0.2 μM Mitomycin C, alone or with 40 μM Vitamin E, 20 μM Selenite, 150 μM Quercetin as named, 42° C. 1 hr
  % cell survival: 36.5%
HCT-116 cells [1]; Study 4, 0.8 μM Mitomycin C, alone or with 40 μM Vitamin E, 20 μM Selenite, 150 μM Quercetin as named, 37° C.
  % cell survival: 16.4%
HCT-116 cells [1]; Study 4, 0.8 μM Mitomycin C, alone or with 40 μM Vitamin E, 20 μM Selenite, 150 μM Quercetin as named, 42° C. 1 hr
  % cell survival: 22.1%
HCT-116 cells [1]; [3]
  GI50: 1.3 µM

## O=c1c(O)c(-c2ccc(O)c(O)c2)oc2cc(O)cc(O)c12 [Quercetin]
HCT-116 cells [1]; Study 2, 20 μM, 37° C.
  % cell survival: 129%
HCT-116 cells [1]; Study 2, 20 μM, 42° C. 1 hr
  % cell survival: 118%
HCT-116 cells [1]; Study 2, 100 μM, 37° C.
  % cell survival: 123%
HCT-116 cells [1]; Study 2, 100 μM, 42° C. 1 hr
  % cell survival: 111%
HCT-116 cells [1]; Study 2
  growth inhibition at the concentrations tested: did not show significant growth inhibition
  growth promoting effect: slight growth promoting effect at the lower concentrations tested
HCT-116 cells [1]; Study 3, FIG. 3b
  cancer cell killing without chemotherapeutic agent, compared to the agents alone: did not show enhanced killing
HCT-116 cells [1]; Study 4, FIG. 4b-4d
  effect on cytotoxicity of the co-administered treatment: reduced the cytotoxicity of Selenite
HCT-116 cells [1]; Study 5, FIG. 5b-5e
  effect on cytotoxicity of the co-administered treatment: reduced the cytotoxicity of Selenite/Vit-D/Vit-E
HCT-116 cells [1]; [4]
  % cell survival: 98.0%
HCT-116 cells [1]; [5]
  % cell survival: 89.5%
HCT-116 cells [1]
  effect on the cytotoxicity caused by Selenite: reduced the cytotoxicity caused by Selenite

## O=[Se](O)O [Selenite]
HCT-116 cells [1]; Study 2, 42° C. 1 hr vs 37° C.
  effect of hyperthermia treatment on cell growth: No significant effect
HCT-116 cells [1]; [6]
  % cell survival: 45%
HCT-116 cells [1]; [7]
  % cell survival: 39.7% and 39.8%
HCT-116 cells [1]; [4]
  % cell survival: 42.6%
HCT-116 cells [1]; [5]
  % cell survival: 32.9%
HCT-116 cells [1]; [3]
  GI50: ~30 µM

## O=C1O[C@H]([C@@H](O)CO)C(O)=C1O [Vitamin C]
HCT-116 cells [1]
  GI50: ~2000 µM
  effect on the cytotoxicity caused by Selenite: did not appear to modulate the cytotoxicity caused by Selenite
HCT-116 cells [1]; Study 2, 0.08 mM, 37° C.
  % cell survival: 102%
HCT-116 cells [1]; Study 2, 0.08 mM, 42° C. 1 hr
  % cell survival: 92.6%
HCT-116 cells [1]; Study 2, 0.31 mM, 37° C.
  % cell survival: 97.6%
HCT-116 cells [1]; Study 2, 0.31 mM, 42° C. 1 hr
  % cell survival: 89%

## Vitamin D
HCT-116 cells [1]; Study 2, 37° C.
  cell survival: 122%
HCT-116 cells [1]; Study 2, 42° C. 1 hr
  cell survival: 110%
HCT-116 cells [1]; Study 2
  growth inhibition at the concentrations tested: did not show significant growth inhibition
  growth promoting effect: slight growth promoting effect at the higher concentrations tested

## Vitamin E
HCT-116 cells [1]; Study 2, 0.32 μM, 37° C.
  % cell survival: 111%
HCT-116 cells [1]; Study 2, 0.32 μM, 42° C. 1 hr
  % cell survival: 95.5%
HCT-116 cells [1]; Study 2, 1.6 μM, 37° C.
  % cell survival: 116%
HCT-116 cells [1]; Study 2, 1.6 μM, 42° C. 1 hr
  % cell survival: 102%
HCT-116 cells [1]; Study 2
  growth promoting effect: slight growth promoting effect at the lower concentrations tested for 37 °C treated group
HCT-116 cells [1]; [6]
  % cell survival: 105.7%
HCT-116 cells [1]; [7]
  % cell survival: 81.6%
HCT-116 cells [1]; [4]
  % cell survival: 112.2%
HCT-116 cells [1]; [5]
  % cell survival: 95.5%
HCT-116 cells [1]; [3]
  GI50: ~90 µM
